Numbers after ± are expanded uncertainties.
What was measured:
[1] = xn = mol fraction of the nth substance listed; details: Vibrating wire viscometry
[2] = Vibrating wire viscometry

F/C=C/C(F)(F)F [trans-1,3,3,3-tetrafluoropropene] + FC(F)C(F)(F)F
[1], x2 = 0.4933
Details | viscosity [mPa·s]
252.3 K, 2010 kPa, Liquid | 0.3181 ± 0.032
252.3 K, 3020 kPa, Liquid | 0.3224 ± 0.033
273.2 K, 1290 kPa, Liquid | 0.2388 ± 0.024
273.2 K, 1990 kPa, Liquid | 0.2407 ± 0.025
273.2 K, 3010 kPa, Liquid | 0.2451 ± 0.025
294.2 K, 1240 kPa, Liquid | 0.1821 ± 0.019
294.2 K, 2000 kPa, Liquid | 0.1861 ± 0.019
294.2 K, 3010 kPa, Liquid | 0.1906 ± 0.019
323.2 K, 960 kPa, Gas | 0.0133 ± 0.0016
343.2 K, 1060 kPa, Gas | 0.0143 ± 0.0016
343.2 K, 1770 kPa, Gas | 0.0149 ± 0.0017
363.2 K, 1960 kPa, Gas | 0.016 ± 0.0018
363.2 K, 2770 kPa, Gas | 0.0173 ± 0.0019
383.2 K, 3110 kPa, Gas | 0.0182 ± 0.002

CC(F)(F)F [1,1,1-trifluoroethane] + C=C(F)C(F)(F)F
[1], x1 = 0.5
Details | viscosity [mPa·s]
252.1 K, 2010 kPa, Liquid | 0.2421 ± 0.025
252.1 K, 2520 kPa, Liquid | 0.2439 ± 0.025
252.1 K, 3030 kPa, Liquid | 0.2451 ± 0.025
273.2 K, 910 kPa, Liquid | 0.1824 ± 0.019
273.2 K, 2010 kPa, Liquid | 0.1859 ± 0.019
273.2 K, 2500 kPa, Liquid | 0.187 ± 0.019
273.2 K, 3000 kPa, Liquid | 0.1888 ± 0.019
294.4 K, 1250 kPa, Liquid | 0.1424 ± 0.015
294.4 K, 2010 kPa, Liquid | 0.1453 ± 0.015
294.4 K, 2510 kPa, Liquid | 0.1469 ± 0.015
294.4 K, 3020 kPa, Liquid | 0.1482 ± 0.015
323.2 K, 970 kPa, Gas | 0.0124 ± 0.0015
343.2 K, 1060 kPa, Gas | 0.0133 ± 0.0016
343.2 K, 1840 kPa, Gas | 0.014 ± 0.0016
363.2 K, 2040 kPa, Gas | 0.0149 ± 0.0017
363.2 K, 2750 kPa, Gas | 0.016 ± 0.0018
383.2 K, 3070 kPa, Gas | 0.0168 ± 0.0019

F/C=C/C(F)(F)F [trans-1,3,3,3-tetrafluoropropene] + C=C(F)C(F)(F)F
[1], x1 = 0.5
Details | viscosity [mPa·s]
252.3 K, 1000 kPa, Liquid | 0.2935 ± 0.03
252.3 K, 2010 kPa, Liquid | 0.2969 ± 0.03
252.3 K, 3020 kPa, Liquid | 0.3004 ± 0.03
273.2 K, 1000 kPa, Liquid | 0.2271 ± 0.023
273.2 K, 1960 kPa, Liquid | 0.2316 ± 0.024
273.2 K, 2980 kPa, Liquid | 0.2352 ± 0.024
294.2 K, 1010 kPa, Liquid | 0.179 ± 0.018
294.2 K, 1980 kPa, Liquid | 0.1824 ± 0.019
294.2 K, 3000 kPa, Liquid | 0.1858 ± 0.019
348.2 K, 950 kPa, Gas | 0.0132 ± 0.0015
368.2 K, 1050 kPa, Gas | 0.0139 ± 0.0016
368.2 K, 1710 kPa, Gas | 0.0148 ± 0.0017
388.2 K, 1910 kPa, Gas | 0.0156 ± 0.0018
388.2 K, 2700 kPa, Gas | 0.0168 ± 0.0019
403.2 K, 3020 kPa, Gas | 0.0175 ± 0.0019

FC(F)C(F)(F)F [pentafluoroethane]
[2]
Details | viscosity [mPa·s]
273.2 K, 1440 kPa, Liquid | 0.2154 ± 0.022
273.2 K, 3260 kPa, Liquid | 0.22 ± 0.022
273.2 K, 4880 kPa, Liquid | 0.224 ± 0.023
273.2 K, 6650 kPa, Liquid | 0.2283 ± 0.023
273.2 K, 8370 kPa, Liquid | 0.2323 ± 0.024
273.2 K, 10120 kPa, Liquid | 0.2364 ± 0.024
273.2 K, 11770 kPa, Liquid | 0.2403 ± 0.024
273.2 K, 13330 kPa, Liquid | 0.2438 ± 0.025
293.3 K, 1680 kPa, Liquid | 0.1739 ± 0.018
293.3 K, 4160 kPa, Liquid | 0.1801 ± 0.018
293.3 K, 6420 kPa, Liquid | 0.1854 ± 0.019
293.3 K, 8490 kPa, Liquid | 0.1902 ± 0.019
293.3 K, 10920 kPa, Liquid | 0.1952 ± 0.02
293.3 K, 13210 kPa, Liquid | 0.2004 ± 0.021
293.3 K, 15530 kPa, Liquid | 0.2052 ± 0.021
293.3 K, 17700 kPa, Liquid | 0.2097 ± 0.021
313.2 K, 1960 kPa, Liquid | 0.14 ± 0.015
313.2 K, 3810 kPa, Liquid | 0.1447 ± 0.015
313.2 K, 5550 kPa, Liquid | 0.1487 ± 0.015
313.2 K, 7210 kPa, Liquid | 0.1525 ± 0.016
313.2 K, 9450 kPa, Liquid | 0.1576 ± 0.016
313.2 K, 11270 kPa, Liquid | 0.1616 ± 0.017
313.2 K, 13140 kPa, Liquid | 0.1653 ± 0.017
333.2 K, 630 kPa, Gas | 0.0116 ± 0.0014
333.2 K, 810 kPa, Gas | 0.0116 ± 0.0014
333.2 K, 1010 kPa, Gas | 0.0117 ± 0.0014
333.2 K, 1300 kPa, Gas | 0.0117 ± 0.0014

F/C=C/C(F)(F)F [trans-1,3,3,3-tetrafluoropropene] + CC(F)(F)F
[1], x2 = 0.5
Details | viscosity [mPa·s]
252.3 K, 1030 kPa, Liquid | 0.2653 ± 0.027
252.3 K, 2020 kPa, Liquid | 0.2688 ± 0.027
252.3 K, 3090 kPa, Liquid | 0.2721 ± 0.028
273.2 K, 1070 kPa, Liquid | 0.2044 ± 0.021
273.2 K, 2060 kPa, Liquid | 0.208 ± 0.021
273.2 K, 3130 kPa, Liquid | 0.2113 ± 0.022
293.2 K, 1130 kPa, Liquid | 0.1573 ± 0.016
293.2 K, 2080 kPa, Liquid | 0.1612 ± 0.017
293.2 K, 3090 kPa, Liquid | 0.1652 ± 0.017
323.2 K, 970 kPa, Gas | 0.0123 ± 0.0015
346.2 K, 1080 kPa, Gas | 0.0131 ± 0.0015
346.2 K, 1910 kPa, Gas | 0.0137 ± 0.0016
363.2 K, 2120 kPa, Gas | 0.0146 ± 0.0017
363.2 K, 2720 kPa, Gas | 0.0155 ± 0.0018
383.2 K, 3040 kPa, Gas | 0.0162 ± 0.0018

FC(F)C(F)(F)F [pentafluoroethane] + CC(F)F
[1], x1 = 0.5
Details | viscosity [mPa·s]
252.1 K, 1020 kPa, Liquid | 0.2923 ± 0.03
252.1 K, 2000 kPa, Liquid | 0.2944 ± 0.03
252.1 K, 2500 kPa, Liquid | 0.2966 ± 0.03
252.1 K, 3000 kPa, Liquid | 0.299 ± 0.03
252.1 K, 4000 kPa, Liquid | 0.3024 ± 0.031
263.1 K, 1510 kPa, Liquid | 0.2558 ± 0.026
263.1 K, 2010 kPa, Liquid | 0.2574 ± 0.026
263.1 K, 2510 kPa, Liquid | 0.2593 ± 0.026
263.1 K, 3020 kPa, Liquid | 0.2612 ± 0.026
263.1 K, 4010 kPa, Liquid | 0.2643 ± 0.027
274.5 K, 1510 kPa, Liquid | 0.2181 ± 0.022
274.5 K, 2000 kPa, Liquid | 0.2198 ± 0.022
274.5 K, 2510 kPa, Liquid | 0.222 ± 0.023
274.5 K, 3020 kPa, Liquid | 0.2233 ± 0.023
274.5 K, 4010 kPa, Liquid | 0.2261 ± 0.023
294.3 K, 1200 kPa, Liquid | 0.1676 ± 0.017
294.3 K, 1500 kPa, Liquid | 0.1688 ± 0.017
294.3 K, 2000 kPa, Liquid | 0.1704 ± 0.017
294.3 K, 3000 kPa, Liquid | 0.1737 ± 0.018
294.3 K, 4000 kPa, Liquid | 0.1777 ± 0.018
323.2 K, 990 kPa, Gas | 0.0124 ± 0.0015
343.2 K, 1090 kPa, Gas | 0.0132 ± 0.0015
343.2 K, 1800 kPa, Gas | 0.014 ± 0.0016
363.2 K, 2010 kPa, Gas | 0.0147 ± 0.0017
363.2 K, 2780 kPa, Gas | 0.0157 ± 0.0018
383.2 K, 3130 kPa, Gas | 0.0165 ± 0.0018

Source: the NIST ThermoML archive (doi:10.1021/acs.jced.8b01039)
